Experimental data published in ChEMBL document CHEMBL3885881, “DrugMatrix”.

Species on record: Rattus norvegicus
Assay: DrugMatrix - Regimen: Daily Repeat
Format: toxicity, organism-based, Sprague-Dawley
Set-up: regimen Daily Repeat, gender Male, age 6-8 weeks
Settings: in vivo, po, route oral GAVAGE, vehicle 100 % SALINE; for ABSOLUTE BASOPHIL / ABSOLUTE EOSINOPHIL / ABSOLUTE LYMPHOCYTE / ABSOLUTE MONOCYTE / ABSOLUTE SEGMENTED NEUTROPHIL / BASOPHIL / EOSINOPHIL / ERYTHROCYTE COUNT / HEMOGLOBIN / LEUKOCYTE COUNT / LYMPHOCYTE / MEAN CORPUSCULAR HEMOGLOBIN / MEAN CORPUSCULAR HEMOGLOBIN CONCENTRATION / MEAN CORPUSCULAR VOLUME / MONOCYTE / NEUTROPHIL / NUCLEATED RED BLOOD CELLS / PLATELET COUNT / HEMATOCRIT: tissue Blood
[1] = 200 mg/kg, 120 h, dose level Low, time 5 day
[2] = 200 mg/kg, 120 h, tissue Plasma, dose level Low, time 5 day
[3] = 600 mg/kg, 72 h, dose level High, time 3 day
[4] = 600 mg/kg, 72 h, tissue Plasma, dose level High, time 3 day
[5] = 600 mg/kg, 120 h, dose level High, time 5 day
[6] = 600 mg/kg, 120 h, tissue Plasma, dose level High, time 5 day

With LEAD(IV) ACETATE the “ABSOLUTE BASOPHIL” value [1] was 0 CELLS/uL, the “ABSOLUTE EOSINOPHIL” value [1] was 0 CELLS/uL and the “ABSOLUTE LYMPHOCYTE” value [1] was 11837.33 CELLS/uL. The “ABSOLUTE MONOCYTE” value [1] was 82.67 CELLS/uL, the “ABSOLUTE SEGMENTED NEUTROPHIL” value [1] was 680 CELLS/uL and the BASOPHIL [1] was 0%. The EOSINOPHIL [1] was 0%, the “ERYTHROCYTE COUNT” value [1] was 5.76 x10E6/uL and the HEMOGLOBIN [1] was 13.8 G/DL. For the same substance, the “LEUKOCYTE COUNT” value [1] was 12.6 x10E3/uL, the LYMPHOCYTE [1] was 93.67% and the “MEAN CORPUSCULAR HEMOGLOBIN” value [1] was 23.93 pg. For the same substance, the “MEAN CORPUSCULAR HEMOGLOBIN CONCENTRATION” value [1] was 39.23 G/DL, the “MEAN CORPUSCULAR VOLUME” value [1] was 61.03 fL and the MONOCYTE [1] was 0.67%. For the same substance, the NEUTROPHIL [1] was 5.67%, the “NUCLEATED RED BLOOD CELLS” value [1] was 0.33 /100WBC and the “PLATELET COUNT” value [1] was 1075 x10E3/uL. For the same substance, the “ALANINE AMINOTRANSFERASE” value [2] was 43.33 u/L, the “ALKALINE PHOSPHATASE” value [2] was 339 u/L and the “ASPARTATE AMINOTRANSFERASE” value [2] was 80 u/L. For the same substance, the “BLOOD UREA NITROGEN” value [2] was 13.33 mg/dL, the “CARBON DIOXIDE” value [2] was 33 mmol/L and the CHLORIDE [2] was 99 MEQ/L. The CHOLESTEROL [2] was 74.67 mg/dL, the “CREATINE PHOSPHOKINASE” value [2] was 263.33 u/L and the CREATININE [2] was 0.31 mg/dL. For the same substance, the GLUCOSE [2] was 134 mg/dL, the “LACTATE DEHYDROGENASE” value [2] was 132.67 u/L and the LIPASE [2] was 14.33 u/L. For the same substance, the PHOSPHORUS [2] was 11.33 mg/dL, the POTASSIUM [2] was 5.88 MEQ/L and the SODIUM [2] was 146.7 MEQ/L. The “TOTAL BILIRUBIN” value [2] was 0.17 mg/dL, the “TOTAL PROTEIN” value [2] was 6.4 G/DL and the “URIC ACID” value [2] was 0.57 mg/dL. For the same substance, the “ABSOLUTE BASOPHIL” value [3] was 0 CELLS/uL, the “ABSOLUTE EOSINOPHIL” value [3] was 0 CELLS/uL and the “ABSOLUTE LYMPHOCYTE” value [3] was 6951.33 CELLS/uL. For the same substance, the “ABSOLUTE MONOCYTE” value [3] was 49.33 CELLS/uL, the “ABSOLUTE SEGMENTED NEUTROPHIL” value [3] was 532.67 CELLS/uL and the BASOPHIL [3] was 0%. For the same substance, the EOSINOPHIL [3] was 0%, the “ERYTHROCYTE COUNT” value [3] was 5.19 x10E6/uL and the HEMATOCRIT [3] was 32%. The HEMOGLOBIN [3] was 12.7 G/DL, the “LEUKOCYTE COUNT” value [3] was 7.53 x10E3/uL and the LYMPHOCYTE [3] was 92%. For the same substance, the “MEAN CORPUSCULAR HEMOGLOBIN CONCENTRATION” value [3] was 39.7 G/DL, the MONOCYTE [3] was 0.67% and the NEUTROPHIL [3] was 7.33%. The “NUCLEATED RED BLOOD CELLS” value [3] was 0 /100WBC, the “PLATELET COUNT” value [3] was 1337.33 x10E3/uL and the “ALANINE AMINOTRANSFERASE” value [4] was 41.67 u/L. For the same substance, the ALBUMIN [4] was 4 G/DL, the “ALKALINE PHOSPHATASE” value [4] was 253 u/L and the “ASPARTATE AMINOTRANSFERASE” value [4] was 83 u/L. For the same substance, the “BLOOD UREA NITROGEN” value [4] was 10.33 mg/dL, the “CARBON DIOXIDE” value [4] was 27 mmol/L and the CHOLESTEROL [4] was 81.33 mg/dL. For the same substance, the “CREATINE PHOSPHOKINASE” value [4] was 396 u/L, the CREATININE [4] was 0.38 mg/dL and the “LACTATE DEHYDROGENASE” value [4] was 126.67 u/L. For the same substance, the LIPASE [4] was 11.33 u/L, the POTASSIUM [4] was 5.16 MEQ/L and the “TOTAL BILIRUBIN” value [4] was 0.1 mg/dL. For the same substance, the “URIC ACID” value [4] was 0.83 mg/dL, the “ABSOLUTE BASOPHIL” value [5] was 0 CELLS/uL and the “ABSOLUTE EOSINOPHIL” value [5] was 0 CELLS/uL. The “ABSOLUTE LYMPHOCYTE” value [5] was 13230 CELLS/uL, the “ABSOLUTE MONOCYTE” value [5] was 139 CELLS/uL and the “ABSOLUTE SEGMENTED NEUTROPHIL” value [5] was 1031 CELLS/uL. For the same substance, the BASOPHIL [5] was 0%, the EOSINOPHIL [5] was 0% and the “ERYTHROCYTE COUNT” value [5] was 6.04 x10E6/uL. For the same substance, the HEMATOCRIT [5] was 35.43%, the HEMOGLOBIN [5] was 13.83 G/DL and the “LEUKOCYTE COUNT” value [5] was 14.4 x10E3/uL. The LYMPHOCYTE [5] was 92%, the “MEAN CORPUSCULAR HEMOGLOBIN” value [5] was 22.97 pg and the “MEAN CORPUSCULAR HEMOGLOBIN CONCENTRATION” value [5] was 39.07 G/DL. For the same substance, the “MEAN CORPUSCULAR VOLUME” value [5] was 58.67 fL, the MONOCYTE [5] was 1% and the NEUTROPHIL [5] was 7%. For the same substance, the “NUCLEATED RED BLOOD CELLS” value [5] was 0.33 /100WBC, the “PLATELET COUNT” value [5] was 1226 x10E3/uL and the “ALANINE AMINOTRANSFERASE” value [6] was 46.33 u/L. The “ALKALINE PHOSPHATASE” value [6] was 257 u/L, the “ASPARTATE AMINOTRANSFERASE” value [6] was 82 u/L and the “BLOOD UREA NITROGEN” value [6] was 11.67 mg/dL. For the same substance, the “CARBON DIOXIDE” value [6] was 35 mmol/L, the CHLORIDE [6] was 97.67 MEQ/L and the CHOLESTEROL [6] was 86 mg/dL. For the same substance, the “CREATINE PHOSPHOKINASE” value [6] was 294 u/L, the CREATININE [6] was 0.19 mg/dL and the “LACTATE DEHYDROGENASE” value [6] was 99 u/L. For the same substance, the PHOSPHORUS [6] was 10.3 mg/dL, the POTASSIUM [6] was 5.89 MEQ/L and the “TOTAL BILIRUBIN” value [6] was 0.13 mg/dL. For the same substance, the “TOTAL PROTEIN” value [6] was 6 G/DL and the “URIC ACID” value [6] was 0.7 mg/dL.
